Values joined by “and” are separate entries in the source; they are usually repeats but may differ in a detail not shown here. Equal values may be shown once. Numbers after ± are expanded uncertainties.
Conditions: Liquid, Gas chromatography

SMILES | vapor or sublimation pressure (298.15 K) | vapor or sublimation pressure (308.15 K) | vapor or sublimation pressure (318.15 K) | vapor or sublimation pressure (328.15 K) | vapor or sublimation pressure (358.15 K) | vapor or sublimation pressure (368.15 K) | vapor or sublimation pressure (378.15 K) | vapor or sublimation pressure (388.15 K) | vapor or sublimation pressure (398.15 K) | vapor or sublimation pressure (408.15 K) | vapor or sublimation pressure (418.15 K) | vapor or sublimation pressure (428.15 K) | vapor or sublimation pressure (438.15 K) | vapor or sublimation pressure (448.15 K) | vapor or sublimation pressure (458.15 K) | vapor or sublimation pressure (468.15 K) | vapor or sublimation pressure (478.15 K) | vapor or sublimation pressure (488.15 K) | vapor or sublimation pressure (498.15 K) | vapor or sublimation pressure (508.15 K) | other results
CCCCCCCC/C=C/CCCCCCCCCCCCC [(E)-9-tricosene] | 1.041e-07 kPa and 1.013e-07 kPa | 4.621e-07 kPa and 4.52e-07 kPa | 1.828e-06 kPa and 1.795e-06 kPa | 6.514e-06 kPa and 6.421e-06 kPa | 0.0001722 ± 0.0002 kPa and 0.000173 ± 0.0002 kPa | 0.0004428 ± 0.0002 kPa and 0.0004438 ± 0.0002 kPa | 0.001067 ± 0.00021 kPa | 0.002425 ± 0.00026 kPa and 0.002419 ± 0.00026 kPa | 0.005195 ± 0.00042 kPa and 0.00522 ± 0.00042 kPa | 0.01062 ± 0.00082 kPa and 0.01069 ± 0.00083 kPa | 0.02075 ± 0.0016 kPa and 0.02093 ± 0.0016 kPa | 0.0389 ± 0.003 kPa and 0.0393 ± 0.003 kPa | 0.07017 ± 0.0054 kPa and 0.07101 ± 0.0055 kPa | 0.1222 ± 0.0095 kPa and 0.1238 ± 0.0096 kPa | 0.2059 ± 0.016 kPa and 0.209 ± 0.016 kPa | 0.3368 ± 0.026 kPa and 0.3423 ± 0.027 kPa | 0.5356 ± 0.042 kPa and 0.5451 ± 0.042 kPa | 0.83 ± 0.064 kPa and 0.8458 ± 0.066 kPa | 1.256 ± 0.097 kPa and 1.281 ± 0.099 kPa | 1.858 ± 0.14 kPa and 1.898 ± 0.15 kPa | vapor or sublimation pressure (338.15 K): 2.089e-05 kPa and 2.112e-05 kPa; vapor or sublimation pressure (518.15 K): 2.693 ± 0.21 kPa and 2.753 ± 0.21 kPa; vapor or sublimation pressure (528.15 K): 3.828 ± 0.3 kPa and 3.918 ± 0.3 kPa; vapor or sublimation pressure (538.15 K): 5.344 ± 0.41 kPa and 5.475 ± 0.42 kPa; vapor or sublimation pressure (548.15 K): 7.336 ± 0.57 kPa and 7.523 ± 0.58 kPa; vapor or sublimation pressure (558.15 K): 9.914 ± 0.77 kPa and 10.18 ± 0.79 kPa; vapor or sublimation pressure (568.15 K): 13.2 ± 1 kPa and 13.56 ± 1.1 kPa; vapor or sublimation pressure (578.15 K): 17.34 ± 1.3 kPa and 17.82 ± 1.4 kPa; vapor or sublimation pressure (588.15 K): 22.48 ± 1.7 kPa and 23.12 ± 1.8 kPa; vapor or sublimation pressure (598.15 K): 28.79 ± 2.2 kPa and 29.64 ± 2.3 kPa; vapor or sublimation pressure (608.15 K): 36.46 ± 2.8 kPa and 37.56 ± 2.9 kPa; vapor or sublimation pressure (618.15 K): 45.67 ± 3.5 kPa and 47.09 ± 3.6 kPa; vapor or sublimation pressure (628.15 K): 56.64 ± 4.4 kPa and 58.44 ± 4.5 kPa; vapor or sublimation pressure (638.15 K): 69.59 ± 5.4 kPa and 71.83 ± 5.6 kPa; vapor or sublimation pressure (648.15 K): 84.72 ± 6.6 kPa and 87.52 ± 6.8 kPa; vapor or sublimation pressure (655 K): 99.7 ± 7.7 kPa; vapor or sublimation pressure (656 K): 98.29 ± 7.6 kPa
CCCCCCCC/C=C\CCCCCCCCCCCCC [(Z)-tricos-9-ene] | 1.146e-07 kPa and 1.205e-07 kPa | 5.055e-07 kPa and 5.324e-07 kPa | 1.987e-06 kPa and 2.096e-06 kPa | 7.042e-06 kPa and 7.434e-06 kPa | 0.0001951 ± 0.0002 kPa and 0.0001844 ± 0.0002 kPa | 0.0004985 ± 0.0002 kPa and 0.0004708 ± 0.0002 kPa | 0.001195 ± 0.00022 kPa and 0.001128 ± 0.00021 kPa | 0.0027 ± 0.00028 kPa and 0.002546 ± 0.00027 kPa | 0.00545 ± 0.00043 kPa and 0.005782 ± 0.00046 kPa | 0.01111 ± 0.00086 kPa and 0.01179 ± 0.00091 kPa | 0.02163 ± 0.0017 kPa and 0.02297 ± 0.0018 kPa | 0.04041 ± 0.0031 kPa and 0.04294 ± 0.0033 kPa | 0.07269 ± 0.0056 kPa and 0.07727 ± 0.006 kPa | 0.1262 ± 0.0098 kPa and 0.1343 ± 0.01 kPa | 0.2121 ± 0.016 kPa and 0.2258 ± 0.017 kPa | 0.346 ± 0.027 kPa and 0.3684 ± 0.029 kPa | 0.5489 ± 0.043 kPa and 0.5848 ± 0.045 kPa | 0.8487 ± 0.066 kPa and 0.9046 ± 0.07 kPa | 1.281 ± 0.099 kPa and 1.366 ± 0.11 kPa | 1.891 ± 0.15 kPa and 2.018 ± 0.16 kPa | vapor or sublimation pressure (518.15 K): 2.735 ± 0.21 kPa and 2.92 ± 0.23 kPa; vapor or sublimation pressure (528.15 K): 3.88 ± 0.3 kPa and 4.144 ± 0.32 kPa; vapor or sublimation pressure (538.15 K): 5.406 ± 0.42 kPa and 5.777 ± 0.45 kPa; vapor or sublimation pressure (548.15 K): 7.406 ± 0.57 kPa and 7.919 ± 0.61 kPa; vapor or sublimation pressure (558.15 K): 9.989 ± 0.77 kPa and 10.69 ± 0.83 kPa; vapor or sublimation pressure (568.15 K): 13.28 ± 1 kPa and 14.21 ± 1.1 kPa; vapor or sublimation pressure (578.15 K): 17.41 ± 1.4 kPa and 18.64 ± 1.4 kPa; vapor or sublimation pressure (588.15 K): 22.53 ± 1.8 kPa and 24.14 ± 1.9 kPa; vapor or sublimation pressure (598.15 K): 28.81 ± 2.2 kPa and 30.88 ± 2.4 kPa; vapor or sublimation pressure (608.15 K): 36.42 ± 2.8 kPa and 39.06 ± 3 kPa; vapor or sublimation pressure (618.15 K): 45.55 ± 3.5 kPa and 48.88 ± 3.8 kPa; vapor or sublimation pressure (628.15 K): 56.41 ± 4.4 kPa and 60.56 ± 4.7 kPa; vapor or sublimation pressure (638.15 K): 69.19 ± 5.4 kPa and 74.32 ± 5.8 kPa; vapor or sublimation pressure (648.15 K): 84.12 ± 6.5 kPa and 90.4 ± 7 kPa; vapor or sublimation pressure (656 K): 104.81 ± 8.1 kPa; vapor or sublimation pressure (658.15 K): 101.4 ± 7.9 kPa

— the NIST ThermoML archive (doi:10.1021/je4008052)
